≈ marks a conversion by molar mass, not a printed value. Calls of active or inactive are those of the source. The rule behind the calls is not given here.
Assays:
[1] = tested on: Trypanosoma brucei rhodesiense; assay: Trypanocidal activity against Trypanosoma brucei rhodesiense KETRI243 infected in mouse assessed as protection against trypanosomal infection at 10 mg/kg, ip QD administered 24 hrs postinfection; format: functional, organism-based; set-up: dose 10 mg/kg
[2] = tested on: Trypanosoma brucei rhodesiense; assay: Trypanocidal activity against Trypanosoma brucei rhodesiense KETRI243 infected in mouse assessed as average survival time at 25 mg/kg, ip BID administered 24 hrs postinfection; format: functional; details: route intraperitoneal
[3] = tested on: Trypanosoma brucei brucei; assay: Trypanocidal activity against Trypanosoma brucei brucei EATRO infected in mouse assessed as mean survival time at 5 mg/kg, ip QD for 4 days; format: functional; details: route intraperitoneal
[4] = tested on: Trypanosoma brucei rhodesiense; assay: Trypanocidal activity against Trypanosoma brucei rhodesiense KETRI1992 infected in mouse assessed as average survival time at 10 mg/kg, ip BID administered 24 hrs postinfection; format: functional; details: route intraperitoneal
[5] = tested on: Trypanosoma brucei brucei; assay: Trypanocidal activity against Trypanosoma brucei brucei EATRO infected in mouse assessed as protection against trypanosomal infection at 2.5 mg/kg, ip BID for 4 days; format: functional, organism-based; set-up: dose 2.5 mg/kg
[6] = tested on: Trypanosoma brucei brucei; assay: Trypanocidal activity against Trypanosoma brucei brucei EATRO infected in mouse assessed as mean survival time at 2.5 mg/kg, ip QD for 4 days; format: functional; details: route intraperitoneal
[7] = tested on: Trypanosoma brucei rhodesiense; assay: Trypanocidal activity against Trypanosoma brucei rhodesiense KETRI243 infected in mouse assessed as average survival time at 10 mg/kg, ip BID administered 24 hrs postinfection; format: functional; details: route intraperitoneal
[8] = tested on: Trypanosoma brucei brucei; assay: Trypanocidal activity against Trypanosoma brucei brucei EATRO infected in mouse assessed as mean survival time at 2 mg/kg, ip BID for 4 days; format: functional; details: route intraperitoneal
[9] = tested on: Trypanosoma brucei rhodesiense; assay: Trypanocidal activity against Trypanosoma brucei rhodesiense KETRI243 infected in mouse assessed as protection against trypanosomal infection at 25 mg/kg, ip QD administered 24 hrs postinfection; format: functional, organism-based; set-up: dose 25 mg/kg
[10] = tested on: Trypanosoma brucei brucei; assay: Trypanocidal activity against Trypanosoma brucei brucei EATRO infected in mouse assessed as protection against trypanosomal infection at 5 mg/kg, ip QD for 4 days; format: functional, organism-based; set-up: dose 5 mg/kg
[11] = tested on: Trypanosoma brucei brucei; assay: Trypanocidal activity against Trypanosoma brucei brucei EATRO infected in mouse assessed as protection against trypanosomal infection at 2 mg/kg, ip BID for 4 days; format: functional, organism-based; set-up: dose 2 mg/kg
[12] = tested on: Trypanosoma brucei rhodesiense; assay: Trypanocidal activity against Trypanosoma brucei rhodesiense KETRI1992 infected in mouse assessed as average survival time at 25 mg/kg, ip BID administered 24 hrs postinfection; format: functional; details: route intraperitoneal
[13] = tested on: Trypanosoma brucei rhodesiense; assay: Trypanocidal activity against Trypanosoma brucei rhodesiense KETRI2002 infected in mouse assessed as average survival time at 10 mg/kg, ip QD administered 24 hrs postinfection; format: functional; details: route intraperitoneal
[14] = tested on: Trypanosoma brucei brucei; assay: Trypanocidal activity against Trypanosoma brucei brucei 667 infected in mouse assessed as average day of relapse of trypanosomal infection at 25 mg/kg, ip BID for 7 days; format: functional; details: route intraperitoneal
[15] = tested on: Trypanosoma brucei brucei; assay: Trypanocidal activity against Trypanosoma brucei brucei 667 infected in mouse assessed as average day of relapse of trypanosomal infection at 100 mg/kg, ip BID for 7 days; format: functional; details: route intraperitoneal
[16] = tested on: Trypanosoma brucei brucei; assay: Trypanocidal activity against Trypanosoma brucei brucei EATRO infected in mouse assessed as protection against trypanosomal infection at 10 mg/kg, ip BID for 4 days; format: functional, organism-based; set-up: dose 10 mg/kg
[17] = tested on: Trypanosoma brucei rhodesiense; assay: Trypanocidal activity against Trypanosoma brucei rhodesiense KETRI1992 infected in mouse assessed as protection against trypanosomal infection at 10 mg/kg, ip QD administered 24 hrs postinfection; format: functional, organism-based; set-up: dose 10 mg/kg
[18] = tested on: Trypanosoma brucei brucei; assay: Trypanocidal activity against Trypanosoma brucei brucei EATRO infected in mouse assessed as mean survival time at 25 mg/kg, ip QD for 4 days; format: functional; details: route intraperitoneal
[19] = tested on: Trypanosoma brucei brucei; assay: Trypanocidal activity against Trypanosoma brucei brucei EATRO infected in mouse assessed as mean survival time at 25 mg/kg, ip BID for 4 days; format: functional; details: route intraperitoneal
[20] = tested on: Trypanosoma brucei rhodesiense; assay: Trypanocidal activity against Trypanosoma brucei rhodesiense KETRI2002 infected in mouse assessed as average survival time at 25 mg/kg, ip BID administered 24 hrs postinfection; format: functional; details: route intraperitoneal
[21] = tested on: Trypanosoma brucei brucei; assay: Trypanocidal activity against Trypanosoma brucei brucei 667 infected in mouse assessed as average day of relapse of trypanosomal infection at 10 mg/kg, ip BID for 4 days; format: functional; details: route intraperitoneal
[22] = tested on: Trypanosoma brucei brucei; assay: Trypanocidal activity against Trypanosoma brucei brucei 667 infected in mouse assessed as average day of relapse of trypanosomal infection at 10 mg/kg, ip BID for 21 days; format: functional; details: route intraperitoneal
[23] = tested on: Trypanosoma brucei rhodesiense; assay: Trypanocidal activity against Trypanosoma brucei rhodesiense KETRI2002 infected in mouse assessed as cure rate at 50 mg/kg, ip QD administered 24 hrs postinfection; format: functional; details: route intraperitoneal
[24] = tested on: Trypanosoma brucei rhodesiense; assay: Trypanocidal activity against Trypanosoma brucei rhodesiense KETRI2002 infected in mouse assessed as cure rate at 50 mg/kg, ip BID administered 24 hrs postinfection; format: functional; details: route intraperitoneal
[25] = tested on: Trypanosoma brucei brucei; assay: Trypanocidal activity against Trypanosoma brucei brucei EATRO infected in mouse assessed as mean survival time at 5 mg/kg, ip BID for 4 days; format: functional; details: route intraperitoneal
[26] = tested on: Trypanosoma brucei brucei; assay: Trypanocidal activity against Trypanosoma brucei brucei EATRO after 48 hrs; format: functional, organism-based
[27] = tested on: Trypanosoma brucei rhodesiense; assay: Trypanocidal activity against Trypanosoma brucei rhodesiense KETRI243 infected in mouse assessed as average survival time at 10 mg/kg, ip QD administered 24 hrs postinfection; format: functional; details: route intraperitoneal
[28] = tested on: Trypanosoma brucei brucei; assay: Trypanocidal activity against Trypanosoma brucei brucei EATRO infected in mouse assessed as mean survival time at 1 mg/kg, ip QD for 4 days; format: functional; details: route intraperitoneal
[29] = tested on: Trypanosoma brucei brucei; assay: Trypanocidal activity against Trypanosoma brucei brucei 667 infected in mouse assessed as average day of relapse of trypanosomal infection at 10 mg/kg, ip BID for 14 days; format: functional; details: route intraperitoneal
[30] = tested on: Trypanosoma brucei rhodesiense; assay: Trypanocidal activity against Trypanosoma brucei rhodesiense KETRI1992 infected in mouse assessed as average survival time at 10 mg/kg, ip QD administered 24 hrs postinfection; format: functional; details: route intraperitoneal
[31] = tested on: Trypanosoma brucei rhodesiense; assay: Trypanocidal activity against Trypanosoma brucei rhodesiense KETRI243 infected in mouse assessed as average survival time at 50 mg/kg, ip BID administered 24 hrs postinfection; format: functional; details: route intraperitoneal
[32] = tested on: Trypanosoma brucei brucei; assay: Trypanocidal activity against Trypanosoma brucei brucei EATRO infected in mouse assessed as mean survival time at 50 mg/kg, ip BID for 4 days; format: functional; details: route intraperitoneal
[33] = tested on: Trypanosoma brucei brucei; assay: Trypanocidal activity against Trypanosoma brucei brucei EATRO infected in mouse assessed as mean survival time at 50 mg/kg, ip QD for 4 days; format: functional; details: route intraperitoneal
[34] = tested on: Trypanosoma brucei rhodesiense; assay: Trypanocidal activity against Trypanosoma brucei rhodesiense KETRI243 infected in mouse assessed as average survival time at 50 mg/kg, ip QD administered 24 hrs postinfection; format: functional; details: route intraperitoneal
[35] = tested on: Trypanosoma brucei rhodesiense; assay: Trypanocidal activity against Trypanosoma brucei rhodesiense KETRI2002 infected in mouse assessed as average survival time at 25 mg/kg, ip QD administered 24 hrs postinfection; format: functional; details: route intraperitoneal
[36] = tested on: Trypanosoma brucei rhodesiense; assay: Trypanocidal activity against Trypanosoma brucei rhodesiense KETRI2002 infected in mouse assessed as cure rate at 10 mg/kg, ip BID administered 24 hrs postinfection; format: functional; details: route intraperitoneal
[37] = tested on: Trypanosoma brucei brucei; assay: Trypanocidal activity against Trypanosoma brucei brucei 667 infected in mouse assessed as average day of relapse of trypanosomal infection at 25 mg/kg, ip BID for 14 days; format: functional; details: route intraperitoneal
[38] = tested on: Trypanosoma brucei brucei; assay: Trypanocidal activity against Trypanosoma brucei brucei EATRO infected in mouse assessed as mean survival time at 2 mg/kg, ip QD for 4 days; format: functional; details: route intraperitoneal
[39] = tested on: Trypanosoma brucei rhodesiense; assay: Trypanocidal activity against Trypanosoma brucei rhodesiense KETRI1992 infected in mouse assessed as protection against trypanosomal infection at 50 mg/kg, ip BID administered 24 hrs postinfection; format: functional, organism-based; set-up: dose 50 mg/kg

Cc1nc2c(N)ncnc2n1[C@@H]1O[C@H](CN(C)C/C=C\CN)[C@@H](O)[C@H]1O
Activity [1]: inactive
MST [2]: 18.75 days
MST [3]: >35 days
MST [4]: 20.4 days
Activity [5]: Active
MST [6]: 21 days
MST [7]: 14.8 days
MST [8]: >35 days
Activity [9]: inactive
Activity [10]: Active
Activity [11]: Active
MST [12]: 23 days
MST [13]: 16 days
MST [14]: 61.7 days
MST [15]: 68.8 days
Activity [16]: Active
Activity [17]: inactive
MST [18]: >35 days
MST [19]: >35 days
MST [20]: 19.3 days
MST [21]: 36 days
MST [22]: 61.8 days
Activity [23]: 80%
Activity [24]: 80%
MST [25]: >35 days
IC50 [26]: 0.58 ng/mL (≈ 1.6 nM)
MST [27]: 13.2 days
MST [28]: 13.5 days
MST [29]: 59.8 days
MST [30]: 16.6 days
MST [31]: 23.3 days
MST [32]: >35 days
MST [33]: >35 days
MST [34]: 17.2 days
MST [35]: 20 days
Activity [36]: 60%
MST [37]: 70.3 days
MST [38]: >35 days
Activity [39]: inactive

Reference: ChEMBL document CHEMBL1649532, “Trypanocidal activity of 8-methyl-5'-{[(Z)-4-aminobut-2-enyl]-(methylamino)}adenosine (Genz-644131), an adenosylmethionine decarboxylase inhibitor” (Antimicrob Agents Chemother, 2009)
